According to the NIST ThermoML archive (doi:10.1016/j.jct.2015.05.028):

Columns and labels:
[1] = mn = molality of the nth substance listed, in mol/kg; conditions: 99.6 kPa, Liquid, Vibrating tube method
[2] = Crystal; DTA

O [water] + CCN1C(=O)N(CC)C2NC(=O)NC21
Conditions	mass density [kg/m3]
[1], 278.15 K, m2 = 0	999.964

CN1C(=O)N(C)C2NC(=O)NC21 (centres undefined)
Conditions	Normal melting temperature [°C]
[2]	253.28

O [water] + CN1C(=O)N(C)C2NC(=O)NC21
Conditions	mass density [kg/m3]
[1], 278.15 K, m2 = 0	999.965

CN1C(=O)N(C)C2NC(=O)NC21 (centres undefined) + O
mass density [kg/m3], [1]
Conditions	278.15 K	288.15 K	298.15 K	308.15 K	318.15 K
m1 = 0.06671	1003.16	1002.21	1000.08	997.02	993.153
m1 = 0.0951	1004.51	1003.52	1001.37	998.281	994.389
m1 = 0.1319	1006.28	1005.23	1003.04	999.917	995.999
m1 = 0.169	1008.03	1006.93	1004.72	1001.55	997.607
m1 = 0.1987	1009.43	1008.31	1006.04	1002.87	998.902
m1 = 0.2323	1011.02	1009.84	1007.54	1004.34	1000.35
m1 = 0.2679	1012.68	1011.46	1009.13	1005.9	1001.88
m1 = 0.3038	1014.37	1013.1	1010.73	1007.47	1003.42
m1 = 0.3326	1015.72	1014.41	1012.01	1008.71	1004.65
m1 = 0.3594	1016.96	1015.62	1013.19	1009.88	1005.79
m1 = 0.3919	1018.47	1017.09	1014.62	1011.29	1007.17

CCN1C(=O)N(CC)C2NC(=O)NC21 (centres undefined)
Conditions	Normal melting temperature [°C]
[2]	327.64
